Experimental data published in ChEMBL document CHEMBL3351854, “A comprehensive review on synthetic approach for antimalarial agents” (Eur J Med Chem, 2014).

Legend:
[1] = test system: Plasmodium falciparum; test: Antimalarial activity Plasmodium falciparum NF54; format: functional, organism-based
[2] = test system: Plasmodium falciparum; test: Antimalarial activity against Plasmodium falciparum by culture assay; format: functional, organism-based
[3] = test system: Plasmodium falciparum; test: Antimalarial activity against Plasmodium falciparum by Heme-HRP assay; format: functional, organism-based
[4] = test system: Plasmodium yoelii nigeriensis; test: Antimalarial activity against multidrug-resistant Plasmodium yoelii nigeriensis infected mouse assessed as protection at 12 mg/kg for 4 days; format: functional
[5] = test system: Plasmodium yoelii nigeriensis; test: Antimalarial activity against multidrug-resistant Plasmodium yoelii nigeriensis infected mouse assessed as protection at 24 mg/kg for 4 days; format: functional

Structure (SMILES): CCOC(=O)CC1CCC2(OCCCC2CC(=O)OCC)OO1 (stereo not given)
- IC50 [1]: 160 nM

Structure (SMILES): Fc1ccc(CNCCOCCOCCNc2ccnc3cc(Cl)ccc23)c(F)c1
- IC50 [2]: 48 nM
- IC50 [3]: 60000 nM

Structure (SMILES): C[C@@H]1[C@H]2CC[C@@H](C)[C@@H]3CC[C@]4(C)OO[C@@]23[C@H](C[C@H]1OC(=O)C1c2ccccc2-c2ccccc21)O4
- Activity [4]: 80%
- Activity [5]: 100%
